For this assay, the target named is T1, CCR1 (Homo sapiens, UniProt P32246).
T1 sequence (P32246 1-355): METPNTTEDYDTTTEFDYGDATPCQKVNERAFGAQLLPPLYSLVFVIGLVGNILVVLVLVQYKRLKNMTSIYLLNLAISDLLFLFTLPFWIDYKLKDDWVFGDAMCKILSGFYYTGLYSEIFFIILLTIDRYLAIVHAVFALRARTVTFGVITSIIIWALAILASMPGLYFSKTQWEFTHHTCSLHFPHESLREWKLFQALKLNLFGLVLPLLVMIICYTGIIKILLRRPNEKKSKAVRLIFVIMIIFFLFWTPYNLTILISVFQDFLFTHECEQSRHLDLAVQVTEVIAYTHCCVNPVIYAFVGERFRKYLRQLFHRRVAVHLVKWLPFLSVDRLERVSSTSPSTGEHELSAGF
The assay is described as follows: Method B: calcium flux in CCR1 transfected cells (Calcium 4 dye, […] FDSS6000), block of the CCR1/MIP-1α interaction. The following applies: Method B: Calcium 4 dye, MIP-1alpha at EC80. The class given is cell-based. Summed up: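 Non-adherent cells stably expressing CCR1 and G-alpha-16 were loaded with Calcium 4 dye plus probenecid for 1 h at room temperature. Compounds (top 3,000 nM, 4-fold, 10 doses, 1% DMSO) in HBSS/20 mM HEPES pH 7.4 were incubated 30 min at 37 C, then 30 min at room temperature. MIP-1α at EC80 was added and calcium flux read on FDSS6000.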

Each structure is given as a SMILES string.

In the case of `CS(=O)(=O)c1ncc(CNC(=O)c2cncc3c2cnn3-c2ccc(F)cc2)s1` [1-(4-Fluorophenyl)-1H-pyrazolo[3,4-c]pyridine-4-carboxylic acid (2-methanesulfonyl-thiazol-5-ylmethyl)-amide], the IC50 is 17 nM.
Under `CC[C@H](NC(=O)c1cncc2c1cnn2-c1ccc(F)cc1)c1cncc(S(N)(=O)=O)c1` [1-(4-Fluorophenyl)-1H-pyrazolo[3,4-c]pyridine-4-carboxylic acid [(S)-1-(5-sulfamoyl-pyridin-3-yl)-propyl]-amide] stands 0.3 nM; under `CC[C@H](NC(=O)c1cncc2c1cnn2-c1ccc(F)cc1)c1nc(C(=O)NC)cs1` [1-(4-Fluorophenyl)-1H-pyrazolo[3,4-c]pyridine-4-carboxylic acid [(S)-1-(4-methylcarbamoyl-thiazol-2-yl)-propyl]-amide], 3 nM; under `CC[C@H](NC(=O)c1cncc2c1cnn2-c1ccc(F)cc1)c1ccc(S(C)(=O)=O)nc1` [1-(4-Fluorophenyl)-1H-pyrazolo[3,4-c]pyridine-4-carboxylic acid [(S)-1-(6-methanesulfonyl-pyridin-3-yl)-propyl]-amide], 1 nM.
Under `CC[C@H](NC(=O)c1cncc2c1cnn2-c1ccc(F)cc1)[C@@H]1CCN(S(C)(=O)=O)[C@H](C(N)=O)C1` [1-(4-Fluorophenyl)-1H-pyrazolo[3,4-c]pyridine-4-carboxylic acid [(S)-1-((2S,4R)-2-carbamoyl-1-methanesulfonyl-piperidin-4-yl)-propyl]-amide] stands 12 nM; under `CCC[C@H](NC(=O)c1cncc2c1cnn2-c1ccc(F)cc1)c1ccnc(S(=O)(=O)CC)c1` [1-(4-Fluorophenyl)-1H-pyrazolo[3,4-c]pyridine-4-carboxylic acid [(S)-1-(2-ethanesulfonyl-pyridin-4-yl)-butyl]-amide], 0.1 nM.
On to `CC[C@H](NC(=O)c1cncc2c1cnn2-c1ccc(F)cc1)c1ccnc(N(C)C2CCNCC2)c1` [1-(4-Fluorophenyl)-1H-pyrazolo[3,4-c]pyridine-4-carboxylic acid {(S)-1-[2-(methyl-piperidin-4-yl-amino)-pyridin-4-yl]-propyl}-amide], for which the IC50 was determined as 11 nM.
As to `CS(=O)(=O)c1cc(CNC(=O)c2cncc3c2cnn3-c2ccc(F)cc2)cc(NCC(N)=O)n1` [1-(4-Fluorophenyl)-1H-pyrazolo[3,4-c]pyridine-4-carboxylic acid [2-(carbamoylmethyl-amino)-6-methanesulfonyl-pyridin-4-ylmethyl]-amide], the IC50 was 11 nM.
Under `CC[C@H](NC(=O)c1cncc2c1cnn2-c1ccc(F)cc1)c1cc(S(C)(=O)=O)[nH]c(=O)c1` [1-(4-Fluorophenyl)-1H-pyrazolo[3,4-c]pyridine-4-carboxylic acid [(S)-1-(6-methanesulfonyl-2-oxo-1,2-dihydropyridin-4-yl)-propyl]-amide] stands 0.3 nM; under `CC[C@H](NC(=O)c1cncc2c1cnn2-c1ccc(F)cc1)c1ccnc(N(C)C(C)=O)c1` [1-(4-Fluorophenyl)-1H-pyrazolo[3,4-c]pyridine-4-carboxylic acid {(S)-1-[2-(acetyl-methyl-amino)-pyridin-4-yl]-propyl}-amide], 5 nM.
As to `CS(=O)(=O)c1cc(CNC(=O)c2cncc3c2cnn3-c2ccc(F)cc2)cc(=O)[nH]1` [1-(4-Fluorophenyl)-1H-pyrazolo[3,4-c]pyridine-4-carboxylic acid (6-methanesulfonyl-2-oxo-1,2-dihydropyridin-4-ylmethyl)-amide], the IC50 came out at 17 nM.
The same measure for `CC[C@H](NC(=O)c1cncc2c1cnn2-c1ccc(F)cc1)c1cccc(Br)n1` [1-(4-Fluorophenyl)-1H-pyrazolo[3,4-c]pyridine-4-carboxylic acid [(S)-1-(6-bromopyridin-2-yl)-propyl]-amide]: 0.2 nM; for `CC[C@H](NC(=O)c1cncc2c1cnn2-c1ccc(F)cc1)c1ccc(Br)c(OC)c1` [1-(4-Fluorophenyl)-1H-pyrazolo[3,4-c]pyridine-4-carboxylic acid [(S)-1-(4-bromo-3-methoxy-phenyl)-propyl]-amide]: 0.5 nM.
The same measure for `CCS(=O)(=O)c1ccc([C@H](C)NC(=O)c2cncc3c2cnn3-c2ccc(F)cc2)cn1` [1-(4-Fluorophenyl)-1H-pyrazolo[3,4-c]pyridine-4-carboxylic acid [(S)-1-(6-ethanesulfonyl-pyridin-3-yl)-ethyl]-amide]: 6 nM; for `CC[C@H](NC(=O)c1cncc2c1cnn2-c1ccc(F)cc1)c1ccccn1` [1-(4-Fluorophenyl)-1H-pyrazolo[3,4-c]pyridine-4-carboxylic acid ((S)-1-pyridin-2-yl-propyl)-amide]: 23 nM; for `CS(=O)(=O)c1cc([C@H](CCO)NC(=O)c2cncc3c2cnn3-c2ccc(F)cc2)ccn1` [1-(4-Fluorophenyl)-1H-pyrazolo[3,4-c]pyridine-4-carboxylic acid [(S)-3-hydroxy-1-(2-methanesulfonyl-pyridin-4-yl)-propyl]-amide]: 12 nM.
Under `C[C@H](NC(=O)c1cncc2c1cnn2-c1ccc(F)cc1)c1nc(Br)cs1` [1-(4-Fluorophenyl)-1H-pyrazolo[3,4-c]pyridine-4-carboxylic acid [(S)-1-(4-bromo-thiazol-2-yl)-ethyl]-amide] stands 24 nM.
In the case of `O=C(N[C@@H](CO)c1ccnc(Br)c1)c1cncc2c1cnn2-c1ccc(F)cc1` [1-(4-Fluorophenyl)-1H-pyrazolo[3,4-c]pyridine-4-carboxylic acid [(R)-1-(2-bromo-pyridin-4-yl)-2-hydroxy-ethyl]-amide], the IC50 amounted to 2 nM.
Under `C[C@H](NC(=O)c1cncc2c1cnn2-c1ccc(F)cc1)c1cccc(S(C)(=O)=O)c1` [1-(4-Fluorophenyl)-1H-pyrazolo[3,4-c]pyridine-4-carboxylic acid [(S)-1-(3-methanesulfonyl-phenyl)-ethyl]-amide] stands 1 nM.
Regarding `O=C(NCc1cnc(N2CCOCC2)nc1)c1cncc2c1cnn2-c1ccc(F)cc1` [1-(4-Fluorophenyl)-1H-pyrazolo[3,4-c]pyridine-4-carboxylic acid (2-morpholin-4-yl-pyrimidin-5-ylmethyl)-amide], the IC50 turned out to be 8 nM.
The same measure for `CC[C@@H](NC(=O)c1cncc2c1cnn2-c1ccc(F)cc1)c1ccc(OC)c(Br)c1` [1-(4-Fluorophenyl)-1H-pyrazolo[3,4-c]pyridine-4-carboxylic acid [(R)-1-(3-bromo-4-methoxy-phenyl)-propyl]-amide]: 0.2 nM.
In the case of `CC[C@H](NC(=O)c1cncc2c1cnn2-c1ccc(F)cc1)c1cnn(C)c1` [1-(4-Fluorophenyl)-1H-pyrazolo[3,4-c]pyridine-4-carboxylic acid [(S)-1-(1-methyl-1H-pyrazol-4-yl)-propyl]-amide], the IC50 came to 11 nM.
`C[C@H](NC(=O)c1cncc2c1cnn2-c1ccc(F)cc1)c1cnc(S(C)(=O)=O)s1` [1-(4-Fluorophenyl)-1H-pyrazolo[3,4-c]pyridine-4-carboxylic acid [(S)-1-(2-methanesulfonyl-thiazol-5-yl)-ethyl]-amide]: the IC50 came out at 6 nM.
The same measure for `CCC(C)(NC(=O)c1cncc2c1cnn2-c1ccc(F)cc1)c1ccnc(Br)c1` (stereo not drawn) [1-(4-Fluorophenyl)-1H-pyrazolo[3,4-c]pyridine-4-carboxylic acid [1-(2-bromo-pyridin-4-yl)-1-methyl-propyl]-amide]: 11 nM; for `CC[C@@H](NC(=O)c1cncc2c1cnn2-c1ccc(F)cc1)c1cc(S(C)(=O)=O)cn1S(=O)(=O)c1ccc(C)cc1` [1-(4-Fluorophenyl)-1H-pyrazolo[3,4-c]pyridine-4-carboxylic acid {(R)-1-[4-methanesulfonyl-1-(toluene-4-sulfonyl)-1H-pyrrol-2-yl]-propyl}-amide]: 16 nM; for `CC[C@H](NC(=O)c1cncc2c1cnn2-c1ccc(F)cc1)c1cc(S(C)(=O)=O)ccn1` [1-(4-Fluorophenyl)-1H-pyrazolo[3,4-c]pyridine-4-carboxylic acid [(S)-1-(4-methanesulfonyl-pyridin-2-yl)-propyl]-amide]: 0.8 nM.
Under `CC[C@H](NC(=O)c1cncc2c1cnn2-c1ccc(F)cc1)c1ccnc(S(=O)(=O)CC)c1` [1-(4-Fluorophenyl)-1H-pyrazolo[3,4-c]pyridine-4-carboxylic acid [(S)-1-(2-ethanesulfonyl-pyridin-4-yl)-propyl]-amide] stands 0.2 nM; under `COC[C@H](NC(=O)c1cncc2c1cnn2-c1ccc(F)cc1)c1ccnc(Br)c1` [1-(4-Fluorophenyl)-1H-pyrazolo[3,4-c]pyridine-4-carboxylic acid [(R)-1-(2-bromopyridin-4-yl)-2-methoxy-ethyl]-amide], 0.5 nM.
Under `CC[C@H](NC(=O)c1cncc2c1cnn2-c1ccc(F)cc1)c1ccc(O)c(S(C)(=O)=O)c1` [1-(4-Fluorophenyl)-1H-pyrazolo[3,4-c]pyridine-4-carboxylic acid [(S)-1-(4-hydroxy-3-methanesulfonyl-phenyl)-propyl]-amide] stands 0.2 nM.
With `CC[C@H](NC(=O)c1cncc2c1cnn2-c1ccc(F)cc1)c1ccncc1` [1-(4-Fluorophenyl)-1H-pyrazolo[3,4-c]pyridine-4-carboxylic acid ((S)-1-pyridin-4-yl-propyl)-amide], the IC50 stood at 6 nM.

What is called IC50 is the concentration that inhibits the measured activity by half.

(Values after patent publication US8063065B2, “Azaindazole compounds as CCR1 receptor antagonists” (Boehringer Ingelheim International GmbH, priority 2008, dated 2011).)
